test system: STAT3 phosphorylation in NCI-H1975 cells; assay: Cellular pSTAT3 assay in NCI-H1975 cells; format: cell-based; conditions: Homo sapiens, 2 hours with compound
Experimental: NCI-H1975 cells were plated onto Costar #3701 96 or 384 well tissue-culture treated plates at 5,000 cells/well in 30 uL medium (RPMI, 10% FBS, supplemented with L-glutamine) and incubated overnight at 37° C. in 5% CO2. Phospho STAT3 signal was quantitated utilizing Cell Signaling Technology #7146B Pathscan […] STAT3 antibody pair kit, following manufacturer's instructions.
Cells were dosed with compound and incubated at 37° C. in 5% CO2 for 2 hours, after which medium and compound were aspirated and cells lysed with 35 uL cold 1×Cell Signaling Lysis buffer and chilled at 4° C. for 1-2 hours. Lysate was incubated on STAT3 capture plates at 4° C. overnight, washed 3× with Tris-Buffered Saline with 0.05% Tween® 20 (TBST), then […] STAT3 detection antibody was applied for 2 hours. Following washing with TBST (3×), HRP-secondary antibody was applied for 2 hours. After additional washing, signal was detected using TMB and Stop solution and read at 450 nm using Tecan Infinite M100.

| SMILES | IC50 |
| --- | --- |
| CCOc1nn(C)cc1Nc1ncc(F)c(-c2c[nH]c3c(NC(=O)[C@H](C)N4CCN(C)C[C@@H]4C)cccc23)n1 [Example 10b, (2S)-2-[(2S)-2,4-dimethylpiperazin-1-yl]-N-(3-{2-[(3-ethoxy-1-methyl-1H-pyrazol-4-yl)amino]-5-fluoropyrimidin-4-yl}-1H-indol-7-yl)propanamide] | > 3 µM |
| CC[C@@H](C(=O)Nc1cccc2c(-c3ccnc(Nc4cn(C)nc4OC)n3)c[nH]c12)N1CCN(C)CC1 [Example 48, (2S)-N-(3-{2-[(3-Methoxy-1-methyl-1H-pyrazol-4-yl)amino]pyrimidin-4-yl}-1H-indol-7-yl)-2-(4-methylpiperazin-1-yl)butanamide] | 0.863 µM |
| COc1nn(C)cc1Nc1nccc(-c2c[nH]c3c(NC(=O)[C@@H](C)N4CCN(C)[C@H](C)C4)cccc23)n1 [Example 30, (2R)-2-[(3R)-3,4-dimethylpiperazin-1-yl]-N-(3-{2-[(3-methoxy-1-methyl-1H-pyrazol-4-yl)amino]pyrimidin-4-yl}-1H-indol-7-yl)propanamide] | 0.359 µM |
| COC[C@@H](C(=O)Nc1cccc2c(-c3ccnc(Nc4cn(C)nc4OC)n3)c[nH]c12)N1CCN(C)CC1 [Example 61, (2S)-3-Methoxy-N-(3-{2-[(3-methoxy-1-methyl-1H-pyrazol-4-yl)amino]pyrimidin-4-yl}-1H-indol-7-yl}-2-(4-methylpiperazin-1-yl)propanamide] | 1.27 µM |
| COC[C@H](C(=O)Nc1cccc2c(-c3nc(Nc4cn(C)nc4OC)ncc3C)c[nH]c12)N1CCN(C)CC1 [Example 45, (2R)-3-methoxy-N-(3-{2-[(3-methoxy-1-methyl-1H-pyrazol-4-yl)amino]-5-methylpyrimidin-4-yl}-1H-indol-7-yl)-2-(4-methylpiperazin-1-yl)propanamide] | 0.0603 µM |
| CCOc1nn(C)cc1Nc1ncc(C)c(-c2c[nH]c3c(NC(=O)[C@@H](C)N4CCN(CCOC)CC4)cccc23)n1 [Example 21, (2R)-N-(3-{2-[(3-ethoxy-1-methyl-1H-pyrazol-4-yl)amino]-5-methylpyrimidin-4-yl}-1H-indol-7-yl)-2-[4-(2-methoxyethyl)piperazin-1-yl]propanamide] | 0.703 µM |
| CCOc1nn(C)cc1Nc1ncc(Cl)c(-c2c[nH]c3c(NC(=O)[C@@H](C)N4CCN(C)CC4)cccc23)n1 [Example 40, (2R)-N-(3-{5-chloro-2-[(3-ethoxy-1-methyl-1H-pyrazol-4-yl)amino]pyrimidin-4-yl}-1H-indol-7-yl)-2-(4-methylpiperazin-1-yl)propanamide] | 0.16 µM |
| CCOc1nn(C)cc1Nc1ncc(C)c(-c2c[nH]c3c(NC(=O)[C@@H](C)N4CCN(C)C[C@@H]4C)cccc23)n1 [Example 22, (2R)-2-[(2S)-2,4-dimethylpiperazin-1-yl]-N-(3-{2-[(3-ethoxy-1-methyl-1H-pyrazol-4-yl)amino]-5-methylpyrimidin-4-yl}-1H-indol-7-yl)propanamide] | 0.55 µM |
| CC[C@@H](C(=O)Nc1cccc2c(-c3nc(Nc4cn(C)nc4C)ncc3F)c[nH]c12)N1CCN(C)CC1 [Example 50, (2S)-N-{3-[2-[(1,3-dimethyl-1H-pyrazol-4-yl)amino]-5-fluoropyrimidin-4-yl}-1H-indol-7-yl)-2-(4-methylpiperazin-1-yl)butanamide] | 0.999 µM |
| CCOc1nn(C)cc1Nc1ncc(F)c(-c2c[nH]c3c(NC(=O)[C@@H](C)N4CCN(CCOC)CC4)cccc23)n1 [Example 9, (2R)-N-(3-{2-[(3-ethoxy-1-methyl-1H-pyrazol-4-yl)amino]-5-fluoropyrimidin-4-yl}-1H-indol-7-yl)-2-[4-(2-methoxyethyl)piperazin-1-yl]propanamide] | 0.594 µM |
| COc1nn(C)cc1Nc1ncc(C)c(-c2c[nH]c3c(NC(=O)[C@@H](C)N4CCN(C)C[C@H]4C)cccc23)n1 [Example 38, (2R)-2-[(2R)-2,4-dimethylpiperazin-1-yl]-N-(3-{2-[(3-methoxy-1-methyl-1H-pyrazol-4-yl)amino]-5-methylpyrimidin-4-yl}-1H-indol-7-yl)propanamide] | 0.108 µM |
| CCOc1nn(C)cc1Nc1ncc(C)c(-c2c[nH]c3c(NC(=O)[C@H](C)N4CCN(C)[C@@H](C)C4)cccc23)n1 [Example 31b, (2S)-2-[(3S)-3,4-dimethylpiperazin-1-yl]-N-(3-{2-[(3-ethoxy-1-methyl-1H-pyrazol-4-yl)amino]-5-methylpyrimidin-4-yl}-1H-indol-7-yl)propanamide] | 0.33 µM |
| CCN1CCN([C@H](C)C(=O)Nc2cccc3c(-c4nc(Nc5cn(C)nc5OC)ncc4F)c[nH]c23)CC1 [Example 4, (2R)-2-(4-ethylpiperazin-1-yl)-N-(3-{5-fluoro-2-[(3-methoxy-1-methyl-1H-pyrazol-4-yl)amino]pyrimidin-4-yl}-1H-indol-7-yl)propanamide] | 0.0986 µM |
| CC[C@H](C(=O)Nc1cccc2c(-c3nc(Nc4cn(C)nc4OC)ncc3C)c[nH]c12)N1CCN(C)CC1 [Example 44, (2R)-N-(3-{2-[(3-Methoxy-1-methyl-1H-pyrazol-4-yl)amino]-5-methylpyrimidin-4-yl}-1H-indol-7-yl)-2-(4-methylpiperazin-1-yl)butanamide] | 0.0577 µM |
| COc1nn(C)cc1Nc1ncc(C)c(-c2c[nH]c3c(NC(=O)[C@@H](C)N4CCN(C)C[C@@H]4C)cccc23)n1 [Example 19, (2R)-2-[(2S)-2,4-dimethylpiperazin-1-yl]-N-(3-{2-[(3-methoxy-1-methyl-1H-pyrazol-4-yl)amino]-5-methylpyrimidin-4-yl}-1H-indol-7-yl)propanamide] | 0.47 µM |
| CCOc1nn(C)cc1Nc1ncc(F)c(-c2c[nH]c3c(NC(=O)[C@@H](C)N4CCN(C)[C@@H](C)C4)cccc23)n1 [Example 11a, (2R)-2-[(3S)-3,4-dimethylpiperazin-1-yl]-N-(3-{2-[(3-ethoxy-1-methyl-1H-pyrazol-4-yl)amino]-5-fluoropyrimidin-4-yl}-1H-indol-7-yl)propanamide] | 0.209 µM |

The remaining compounds from weak to strong by IC50, led by results:

| IC50 | SMILES |
| --- | --- |
| 0.643 µM | COc1nn(C)cc1Nc1nccc(-c2c[nH]c3c(NC(=O)[C@@H](C)N4CCN(C)C[C@@H]4C)cccc23)n1 [Example 1, (2R)-2-[(2S)-2,4-dimethylpiperazin-1-yl]-N-(3-{2-[(3-methoxy-1-methyl-1H-pyrazol-4-yl)amino]pyrimidin-4-yl}-1H-indol-7-yl)propanamide] |
| 0.531 µM | CCOc1nn(C)cc1Nc1ncc(F)c(-c2c[nH]c3c(NC(=O)[C@@H](C)N4CCN(C)C[C@@H]4C)cccc23)n1 [Example 10a, (2R)-2-[(2S)-2,4-dimethylpiperazin-1-yl]-N-(3-{2-[(3-ethoxy-1-methyl-1H-pyrazol-4-yl)amino]-5-fluoropyrimidin-4-yl}-1H-indol-7-yl)propanamide] |
| 0.433 µM | CCOc1nn(C)cc1Nc1ncc(C)c(-c2c[nH]c3c(NC(=O)[C@H](CC)N4CCN(C)CC4)cccc23)n1 [Example 63, (2S)-N-(3-{2-[(3-ethoxy-1-methyl-1H-pyrazol-4-yl)amino]-5-methypyrimidin-4-yl}-1H-indol-7-yl)-2-(4-methylpiperazin-1-yl)butanamide] |
| 0.41 µM | CCOc1nn(C)cc1Nc1ncc(C)c(-c2c[nH]c3c(NC(=O)[C@@H](C)N4CCN(C)C[C@H]4C)cccc23)n1 [Example 23, (2R)-2-[(2R)-2,4-dimethylpiperazin-1-yl]-N-(3-{2-[(3-ethoxy-1-methyl-1H-pyrazol-4-yl)amino]-5-methylpyrimidin-4-yl}-1H-indol-7-yl)propanamide] |
| 0.245 µM | CCOc1nn(CC)cc1Nc1ncc(C)c(-c2c[nH]c3c(NC(=O)[C@@H](C)N4CCN(C)CC4)cccc23)n1 [Example 59, (2R)-N-(3-{2-[(3-ethoxy-1-ethyl-1H-pyrazol-4-yl)amino]-5-methylpyrimidin-4-yl}-1H-indol-7-yl)-2-(4-methylpiperazin-1-yl)propanamide] |
| 0.222 µM | CCOc1nn(C)cc1Nc1ncc(F)c(-c2c[nH]c3c(NC(=O)[C@@H](C)N4CCN(C)[C@H](C)C4)cccc23)n1 [Example 13, (2R)-2-[(3R)-3,4-dimethylpiperazin-1-yl]-N-(3-{2-[(3-ethoxy-1-methyl-1H-pyrazol-4-yl)amino]-5-fluoropyrimidin-4-yl}-1H-indol-7-yl)propanamide] |
| 0.184 µM | CCOc1nn(C)cc1Nc1ncc(C)c(-c2c[nH]c3c(NC(=O)[C@@H](C)N4CCN(CC)CC4)cccc23)n1 [Example 20, (2R)-N-(3-{2-[(3-ethoxy-1-methyl-1H-pyrazol-4-yl)amino]-5-methylpyrimidin-4-yl}-1H-indol-7-yl)-2-(4-ethylpiperazin-1-yl)propanamide] |
| 0.176 µM | CC[C@@H](C(=O)Nc1cccc2c(-c3nc(Nc4cn(C)nc4OC)ncc3C)c[nH]c12)N1CCN(C)CC1 [Example 43, (2S)-N-(3-{2-[(3-Methoxy-1-methyl-1H-pyrazol-4-yl)amino]-5-methylpyrimidin-4-yl}-1H-indol-7-yl)-2-(4-methylpiperazin-1-yl)butanamide] |
| 0.153 µM | CCOc1nn(C)cc1Nc1ncc(C)c(-c2c[nH]c3c(NC(=O)[C@@H](C)N4CCN(C)CC4)cccc23)n1 [Example 35, (2R)-N-(3-{2-[(3-ethoxy-1-methyl-1H-pyrazol-4-yl)amino]-5-methylpyrimidin-4-yl}-1H-indol-7-yl)-2-(4-methylpiperazin-1-yl)propanamide] |
| 0.105 µM | CCN1CCN([C@H](C)C(=O)Nc2cccc3c(-c4nc(Nc5cn(C)nc5OC)ncc4C)c[nH]c23)CC1 [Example 16, (2R)-2-(4-ethylpiperazin-1-yl)-N-(3-{2-[(3-methoxy-1-methyl-1H-pyrazol-4-yl)amino]-5-methylpyrimidin-4-yl}-1H-indol-7-yl)propanamide] |
